In US12552787B2, “Quinazoline compound” (MEDSHINE DISCOVERY INC., priority 2020, dated 2026):
Like-named read-outs stand apart in the source and are kept apart here.

How the values were obtained:
[1] = target: T1, KRAS(G12C) and SOS1 binding (Homo sapiens, UniProt Q07889); assay: KRAS (G12C) and SOS1 binding assay (HTRF); details: 25° C., 60 minutes, read-out: IC50, inhibitory activity on KRAS(G12C) and SOS1 binding
T1 sequence (Q07889 564-1049): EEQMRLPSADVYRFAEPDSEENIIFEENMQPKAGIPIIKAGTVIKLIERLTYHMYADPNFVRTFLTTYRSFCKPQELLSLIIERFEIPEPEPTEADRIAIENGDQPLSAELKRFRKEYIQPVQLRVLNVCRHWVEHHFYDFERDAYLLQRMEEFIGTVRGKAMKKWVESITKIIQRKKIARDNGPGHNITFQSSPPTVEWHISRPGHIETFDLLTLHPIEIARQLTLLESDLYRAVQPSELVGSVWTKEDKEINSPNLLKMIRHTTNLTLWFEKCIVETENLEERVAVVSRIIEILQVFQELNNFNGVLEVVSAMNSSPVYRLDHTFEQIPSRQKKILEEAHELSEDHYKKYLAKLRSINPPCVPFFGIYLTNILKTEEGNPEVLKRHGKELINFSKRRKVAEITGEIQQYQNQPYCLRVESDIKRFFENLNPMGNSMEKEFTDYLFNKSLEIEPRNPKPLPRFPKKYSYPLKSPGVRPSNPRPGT
Description: (§1) 1. Experimental Materials:
Multifunctional microplate reader Nivo5 was purchased from PerkinElmer.
2. Preparation of 1× Buffer:
The buffer for this experiment was the current preparation.
Preparation method: 4-Hydroxyethylpiperazineethanesulfonic acid (Hepes): 5 mM; sodium chloride (NaCl): 150 mM; ethylenediaminetetraacetic acid (EDTA): 10 mM; CO-630 (Igepal): 0.0025%; potassium fluoride (KF): 100 mM; dithiothreitol (DTT): 1 mM; bovine serum albumin (BSA): 0.05%.
• 1) The compounds to be tested were diluted 5-fold with DMSO to the eighth concentration using a row gun, that is, from 1 mM to 0.064 μM. • 2) Each gradient of the compounds to be tested were diluted with 1× buffer into a working solution of 2% DMSO, 5 μL/well was added to the corresponding well, corresponding to a concentration gradient of 20 μM to […], and a double-duplication experiment was set up. The working solution was centrifuged at 1000 rpm for 1 minute. • 3) A mixed working solution of KRAS (G12C) (200 nM) and Mab Anti GST-Eu cryptate (1 ng/μL) was prepared with 1× buffer, then the mixed working solution was incubated at 25° C. for 5 minutes, and 2.5 μL/well was added to the corresponding well. • 4) A mixed working solution of SOS1 (80 nM) and Mab Anti 6HIS-XL665 ([…]) was prepared with 1× buffer, 2.5 μL/well was added to the corresponding well; 2.5 μL of Mab Anti 6HIS-XL665 ([…]) diluent was added to the blank well (Blank), at this time the final concentration gradient of the compounds was 10 μM diluted to 0.64 nM, KRAS (G12C) ([…]), MAb Anti GST-Eu cryptate (0.25 ng/μL), SOS1 (20 nM), Mab Anti 6HIS-XL665 (2 g/μL), and the reaction system was placed at 25° C. for 60 minutes. A multi-label analyzer was used for reading HTRF after the reaction was completed. 4. Data Analysis:
Using the equation (Sample−Min)/(Max−Min)×100% to convert the raw data into inhibition rate, and the value of IC50 might be obtained by curve fitting with four parameters (obtained by “Log(inhibitor) vs. response-Variable slope” mode in GraphPad Prism). Table 1 provides the inhibitory activity of the compounds of the present disclosure on KRAS(G12C) and SOS1 binding.

[2] = Pharmacokinetic study in mice; assay type: in vivo; details: mouse, plasma; for AUC(0-t): read-out: AUC0-24 h
Description: The purpose of this experiment is to evaluate the pharmacokinetic behavior of the compounds after a single intravenous injection or intragastric administration in mice. For intravenous injection, the compound was prepared as a clear solution of 0.2 mg/mL, vehicle: 5% DMSO/95% (10% hydroxypropyl-β-cyclodextrin) aqueous solution; for intragastric administration, the compound was prepared as a suspension of 0.3 mg/mL, vehicle: 5% DMSO/95% (10% hydroxypropyl-β-cyclodextrin) aqueous solution.
The concentrations of compounds in plasma were determined by high performance liquid chromatography-tandem mass spectrometry (LC-MS/MS). Retention time of compounds and internal standard (diclofenac), chromatogram acquisition and integration of chromatogram were processed using the software Analyst (Applied Biosystems), and statistics of the data were processed using the software Watson LIMS (Thermo Fisher Scientific) or Analyst (Applied Biosystems). The concentration of analytes in the sample was expressed in ng/mL, with 3 valid digits retained. All values expressed as percentages (for example, % deviation and % coefficient of variation, etc.) were retained to one decimal point. Each calibration curve contained at least 6 concentration levels. The calibration specimen should be prepared using a stock solution from a different source than the quality control sample. The deviation between the calculated concentration of the calibration specimen and the indicated value exceeds ±15.0% (the lower limit of quantification exceeds ±20.0%) and the specimen should be rejected in the regression analysis. The rejected calibration specimens should be less than 25% and each calibration curve should contain at least 6 calibration specimens that meet the acceptance criteria. If the lower and upper limits of quantification calibration specimens need to be rejected, the upper and lower limits of quantification for the analytical batch will be raised and lowered accordingly.
Plasma concentrations were processed using the non-compartmental model of WinNonlin™ Version 6.3 (Pharsight, Mountain View, CA) pharmacokinetic software, and pharmacokinetic parameters were calculated using the linear-log trapezoidal method. The pharmacokinetic parameters to be calculated include but are not limited to (data permitting) T1/2, Vdss, CL, AUC0-24 h of IV group; Cmax, Tmax, AUC0-24 h, oral bioavailability (F %) of PO group.
The relevant pharmacokinetic parameters of the embodiment of the present disclosure in mice intravenously injected at a dose of 1 mg/Kg and intragastrically administered at a dose of 3 mg/Kg are shown in Table 5 below.

[3] = system: A427 cells; assay: In vitro anti-proliferation assay of A427 cells (KRAS G12D); assay type: cell-based; details: Homo sapiens, A-427, 336 h; A427 cells in agarose gel, 14 days, Almar blue; read-out: IC50, inhibitory activity on the proliferation of A427 cells
Excerpt: as §1
EMEM culture medium, fetal bovine serum, penicillin/streptomycin antibiotics were purchased from Wisent, and low melting point agarose was purchased from Sigma. Almar blue reagent was purchased from Invitrogen. A427 cell line was purchased from Nanjing Cobioer Biotechnology Co., Ltd. Envision multi-label analyzer (PerkinElmer).
• 1) A427 cells were planted in a 96-well U-shaped plate, and the low melting point agarose was first prepared into a 2% mother solution. When used, the agarose mother solution was first heated in a microwave oven to completely melt, and then placed in a 42° C. water bath to keep the agarose in a liquid state. The gel was added to a serum-containing medium to prepare a gel concentration of 0.6% as the base gel, and spread into a 96-well U-shaped plate at 50 μL per well. After the base gel was solidified, 2% gel was added to a cell-containing medium to prepare a gel concentration of 0.4% of cell-containing top gel with a cell density of 4×10^4 cells/mL, which was added to a 96-well U-shaped plate spread with base gel at 75 μL per well with a cell density of 3000 cells per well. After the top gel was solidified, the cell plate was incubated overnight in a CO2 incubator. • 2) On the day of adding the compounds, 85 μL of liquid medium was added to the 96-well U-shaped plate in which the cells were spread. The compounds to be tested were diluted 3-fold with a row gun to the ninth concentration, that is, from 6 mM to 0.9 μM, and a double-duplication experiment was set up. 97 μL of culture medium was added to a middle plate, and then 2.5 μL of gradient diluted compound per well was transferred to the middle plate according to the corresponding position. After being thoroughly mixed, 40 μL per well was transferred to the cell plate. The concentration range of the compound transferred to the cell plate was 30 μM to 4.5 nM. […] A multi-label analyzer was used for reading. […]

[4] = po, intragastric administration, 3 mg/Kg

With `C=CC(Nc1nc(C)nc2cc(=O)n(C3CCOCC3)cc12)c1cc(N)cc(C(F)(F)F)c1` (stereo not shown) [Compound 1] the IC50 [1] was 32 nM.
`C=CC(Nc1nc(C)nc2cc(=O)n(C3(C)CCOC3)cc12)c1cc(N)cc(C(F)(F)F)c1` (stereo not shown) [Compound 2] gave an IC50 [1] of 26 nM.
In the case of `C=CC(Nc1nc(C)nc2cc(=O)n(C3(CF)CC3)cc12)c1cc(N)cc(C(F)(F)F)c1` (stereo not shown) [Compound 3], the IC50 [1] is reported as 25 nM.
With `C=CC(Nc1nc(C)nc2cc(=O)n(C34CCC(O)(CC3)CC4)cc12)c1cc(N)cc(C(F)(F)F)c1` (stereo not shown) [Compound 4] the IC50 [1] was 21 nM.
`C=C[C@@H](Nc1nc(C)nc2cc(=O)n(C3(C(F)F)CC3)cc12)c1cc(C(F)(F)CO)cs1` [Compound 7] gave an IC50 [1] of 13 nM.
For `C=C[C@@H](Nc1nc(C)nc2cc(=O)n(C3(C(F)F)CC3)cc12)c1cccc(C(F)F)c1F` [Compound 8], the clearance ([2]; intravenous injection, 1 mg/Kg) was 30.5 mL/min/kg, the half-life ([2]; intravenous injection, 1 mg/Kg) was 40.2 min and the AUC(0-t) ([2]; intravenous injection, 1 mg/Kg) was 1.77 µM·h. For the same compound, the Vd ([2]; intravenous injection, 1 mg/Kg, read-out: Vdss) was 1.84 L/kg, the bioavailability ([2]; oral, intragastric 3 mg/Kg vs intravenous 1 mg/Kg, read-out: F % (oral bioavailability)) was 109% and the Cmax [2, 4] was 1380 nM. For the same compound, the Tmax [2, 4] was 60 min, the AUC(0-t) [2, 4] was 4.11 µM·h and the IC50 [3] was at most 100 nM.
`C=C[C@@H](Nc1nc(C)nc2cc(=O)n(C3(C)CCN(C(C)=O)C3)cc12)c1cccc(C(F)F)c1F` (stereo partly shown) [Compound 13] gave an IC50 [3] of at most 100 nM.
Work on `C=C[C@@H](Nc1nc(C)nc2cc(=O)n(C3(C(F)F)CCN(C(C)=O)C3)cc12)c1cccc(C(F)F)c1F` (stereo partly shown) [Compound 15] yielded an IC50 [3] of at most 100 nM.
